Data: patent US11040056B2, “Benzimidazoles that enhance the activity of oligonucleotides” (The University of North Carolina at Chapel Hill, priority 2018, dated 2021)

Tested on: P-glycoprotein (Pgp) expression in NIH-3T3-MDR cells
Assay: ASO mediated inhibition of MDR1 gene expression (Pgp by flow cytometry)
Assay type: cell-based, mouse
Settings: 100 nM anti-MDR1 ASO 16 h; 10 μM UNC2383 2 h where used; 48 h
Method: FIG. 4. Effects with ASOs. Reduction of Pgp expression. NIH 3T3-MDR cells were incubated with 100 nM anti-MDR1 ASO or a mismatched (MM) control for 16 h in DMEM+1% FBS. Cells were rinsed and then treated with 10 μM UNC2383 for 2 h. The compound was removed, and the cells further incubated for 48 h. Expression of Pgp on the cell surface was determined by treating cells with Alexa 488 labeled anti-Pgp monoclonal antibody and binding quantitated by flow cytometry (PE(A)=units of fluorescence intensity). Treatment with ASO complexed with Lipofectamine 2000 (L2K) was a positive control. Y axis, cell counts; X axis, Alexa 488 fluorescence. […] Means±SE, N=3.
We also tested UNC2383 for its ability to affect ASOs rather than SSOs. The ASO was designed to inhibit expression of the MDR1 gene and its product the P-glycoprotein multidrug transporter. […] Cell surface expression of P-glycoprotein was monitored using an Alexa 488 labeled anti-Pgp monoclonal antibody and flow cytometry. […]
SSO-mediated luciferase induction assays were conducted as previously described. (18) In short, HeLaLuc705 cells in 24 well culture plates were preincubated with SSO623 followed by brief treatment with the small molecule; at intervals thereafter, luciferase activity and protein content were determined. […] Cytotoxicity of 2383 was monitored using the Alamar Blue assay. […]

## O=C(Nc1nc2ccccc2n1CCN1CCCC1)c1cc2cc(Cl)ccc2o1 [UNC2383]
  Pgp expression on the cell surface: substantial reduction
